Patent publication US8338472B2, “Hexahydrocyclopentyl[F]indazole carboxamides and derivatives thereof as selective glucocorticoid receptor modulators” (Merck Sharp & Dohme Corp., priority 2008, dated 2012)
Where two headings read alike, the source gives them in different places.

Legend:
human GR = molecular target: T1, human GR (Homo sapiens, UniProt P04150); assay: Transrepression Assay (GITAR), TNFα-β-lactamase reporter gene in U937 cells; type: cell-based; conditions: for GITAR Greater than by GRAMMER % SEP: GITAR Emax minus GRAMMER Emax; for EC50: inflection point, U937 cells, read-out: Transrepression U937 Cells GITAR IP
T1 construct: U937 cells contain an endogenous glucocorticoid receptor (GR); endogenous in cells; host or cells: U937 cells stably transfected with the TNF-alpha promoter/beta-lactamase reporter
T1 sequence (P04150 1-777): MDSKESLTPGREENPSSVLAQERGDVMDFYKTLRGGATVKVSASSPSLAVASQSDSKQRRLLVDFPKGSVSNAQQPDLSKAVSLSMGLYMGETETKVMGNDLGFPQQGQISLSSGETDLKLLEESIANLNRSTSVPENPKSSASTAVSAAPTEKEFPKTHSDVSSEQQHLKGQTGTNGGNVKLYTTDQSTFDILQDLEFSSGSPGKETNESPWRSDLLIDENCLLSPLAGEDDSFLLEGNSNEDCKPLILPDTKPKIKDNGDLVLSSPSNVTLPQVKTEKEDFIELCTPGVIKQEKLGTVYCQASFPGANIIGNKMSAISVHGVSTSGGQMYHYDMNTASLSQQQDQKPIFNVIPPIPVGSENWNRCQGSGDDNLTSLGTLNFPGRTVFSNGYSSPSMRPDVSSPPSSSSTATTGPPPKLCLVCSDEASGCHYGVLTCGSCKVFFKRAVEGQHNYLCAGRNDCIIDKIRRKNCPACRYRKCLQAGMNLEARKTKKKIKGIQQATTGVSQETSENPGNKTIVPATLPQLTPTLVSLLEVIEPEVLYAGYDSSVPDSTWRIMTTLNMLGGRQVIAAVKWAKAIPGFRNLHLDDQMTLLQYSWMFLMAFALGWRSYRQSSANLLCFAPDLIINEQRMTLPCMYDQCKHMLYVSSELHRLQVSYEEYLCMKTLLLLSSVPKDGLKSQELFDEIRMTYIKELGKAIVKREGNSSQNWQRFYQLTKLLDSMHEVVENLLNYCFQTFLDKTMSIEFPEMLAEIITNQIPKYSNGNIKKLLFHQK
Outline: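 Repression of PMA (5 ng/ml final)/LPS (100 ng/ml final)-induced TNF-α promoter activity, read as β-lactamase cleavage of CCF2-AM, in stably transfected U937 cells expressing native GR. Compound added 30-45 min before stimulation, overnight (~18 hr) 37° C; normalized to 100 nM dexamethasone (100%).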

[1] = molecular target: T2, glucocorticoid receptor (GR) (Homo sapiens, UniProt P04150); assay: Ligand binding assay (GR BIND), 3H-dexamethasone displacement in MDA-MB-453 cell lysate; conditions: GR BIND Ki, Table 1
T2 sequence (P04150 1-777): T1 sequence (P04150 1-777)

Glucocorticoid Receptor = molecular target: T3, Glucocorticoid Receptor (Homo sapiens, UniProt P04150); assay: Trans-Activation Modulation of Glucocorticoid Receptor (GRAMMER), MMTV-LUC reporter gene in A549 cells; type: cell-based; conditions: Table 1; for Emax: A549, A549 cells, Emax relative to 300 nM dexamethasone, read-out: Transactivation A549 Cells GRAMMER Emax; for EC50: inflection point, A549 cells, read-out: Transactivation A549 Cells GRAMMER IP
T3 construct: These cells express large amount of the GR and are very responsive to GC treatment; endogenous in cells; host or cells: A549 cells transiently transfected with the MMTV-LUC reporter
T3 sequence (P04150 1-777): T1 sequence (P04150 1-777)
Outline: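 Luciferase from a transiently transfected MMTV-LUC reporter was measured after 24 h compound exposure (≤1% DMSO) in A549 or MDA-MB-453 cells. For antagonism, the decrease of 10 nM dexamethasone-induced signal was calculated. For agonism, Emax was referenced to 300 nM dexamethasone.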

[2] = U-937, U937 cells, activity repressed by 100 nM dexamethasone = 100%, Table 1, read-out: Transrepression U937 Cells GITAR Emax
[3] = U-937, text statement, 100 nM dexamethasone = 100%, read-out: maximal activity in the transrepression assay (GITAR)

| Structure (SMILES) | GITAR Greater than by GRAMMER % SEP (human GR; Table 1) | Emax (human GR; [2]) | Emax (human GR; [3]) | EC50 (human GR; Table 1) | Ki [1] | Emax (Glucocorticoid Receptor) | EC50 (Glucocorticoid Receptor) |
| --- | --- | --- | --- | --- | --- | --- | --- |
| C[C@]12Cc3cnn(-c4ccc(F)cc4)c3C=C1CC[C@@H]2C(=O)N(CCO)Cc1cc(F)c(F)c(F)c1 [Compound 28, (4αR,5S)-1-(4-fluorophenyl)-N-(2-hydroxyethyl)-4α-methyl-N-(3,4,5-trifluorobenzyl)-1,4,4α,5,6,7-hexahydrocyclopenta[f] indazole-5-carboxamide] | 45.4% | 56% | > 5% | 1290 nM | 8.9 nM | 10.6% | 1220 nM |
| C[C@]12Cc3cnn(-c4ccc(F)cc4)c3C=C1CC[C@@H]2C(=O)N(CCO)CC(=O)c1coc2ccccc12 [Compound 29, (4αR,5S)-N-[2-(1-benzofuran-3-yl)-2-oxoethyl]-1-(4-fluorophenyl)-N-(2-hydroxyethyl)-4α-methyl-1,4,4α,5,6,7-hexahydrocyclopenta[f]indazole-5-carboxamide] | 29.8% | 32.5% | > 5% | 1840 nM | 39.1 nM | 2.7% | 3290 nM |
| C[C@]12Cc3cnn(-c4ccc(F)cc4)c3C=C1CC[C@@H]2C(=O)N(CCO)Cc1ccccc1CS(=O)(=O)c1ccccc1 [Compound 30, (4αR,5S)-1-(4-fluorophenyl)-N-(2-hydroxyethyl)-4α-methyl-N-{2-[(phenylsulfonyl)methyl]benzyl}-1,4,4α,5,6,7-hexahydrocyclopenta[f] carboxamide] | 31.2% | 35.5% | > 5% | 1080 nM | 12.2 nM | 4.3% | 1110 nM |
| C[C@]12Cc3cnn(-c4ccc(F)cc4)c3C=C1CC[C@@H]2C(=O)N(CCO)Cc1csc2ccc(Cl)cc12 [Compound 31, (4αR,5S)-N-[(5-chloro-1-benzothien-3-yl)methyl]-1-(4-fluorophenyl)-N-(2-hydroxyethyl)-4α-methyl-1,4,4α,5,6,7-hexahydrocyclopenta[f]indazole-5-carboxamide] | 12.9% | 15.5% | > 5% | 1230 nM | 7.9 nM | 2.6% | 359 nM |
| C[C@]12Cc3cnn(-c4ccc(F)cc4)c3C=C1CC[C@@H]2C(=O)N(CCO)Cc1cccc(F)c1 [Compound 33, (4αR,5S)-N-(3-fluorobenzyl)-1-(4-fluorophenyl)-N-(2-hydroxyethyl)-4α-methyl-1,4,4α,5,6,7-hexahydrocyclopenta[f]indazole-5-carboxamide] | 44.1% | 56.3% | > 5% | 1520 nM | 7.7 nM | 12.2% | 901 nM |
| C[C@]12Cc3cnn(-c4ccc(F)cc4)c3C=C1CC[C@@H]2C(=O)N(CCO)Cc1ccccc1 [Compound 36, (4αR,5S)-N-benzyl-1-(4-fluorophenyl)-N-(2-hydroxyethyl)-4α-methyl-1,4,4α,5,6,7-hexahydrocyclopenta[f]indazole-5-carboxamide] | 54.9% | 67.4% | > 5% | 1280 nM | 11.7 nM | 12.5% | 872 nM |
| CCCN(CCO)C(=O)[C@H]1CCC2=Cc3c(cnn3-c3ccc(F)cc3)C[C@@]21C [Compound 37, (4αR,5S)-1-(4-fluorophenyl)-N-(2-hydroxyethyl)-4α-methyl-N-propyl-1,4,4α,5,6,7-hexahydrocyclopenta[f]indazole-5-carboxamide] | 31.3% | 37% | > 5% | 3420 nM | 168 nM | 5.7% | 2550 nM |
| CN(CC#N)C(=O)[C@H]1CCC2=Cc3c(cnn3-c3ccc(F)cc3)C[C@@]21C [Compound 41, (4αR,5S)-N-(cyanomethyl)-1-(4-fluorophenyl)-N,4α-dimethyl-1,4,4α,5,6,7-hexahydrocyclopenta[f]indazole-5-carboxamide] | 35.4% | 41% | > 5% | 2360 nM | 44.3 nM | 5.6% | 4050 nM |

The next molecules have a lower EC50 (human GR; Table 1) than those just listed; values first:

| GITAR Greater than by GRAMMER % SEP (human GR; Table 1) | Emax (human GR; [2]) | Emax (human GR; [3]) | EC50 (human GR; Table 1) | Ki [1] | Emax (Glucocorticoid Receptor) | EC50 (Glucocorticoid Receptor) | Structure (SMILES) |
| --- | --- | --- | --- | --- | --- | --- | --- |
| 47.1% | 64.3% | > 5% | 1030 nM | 11.1 nM | 17.1% | 872 nM | C[C@]12Cc3cnn(-c4ccc(F)cc4)c3C=C1CC[C@@H]2C(=O)N(CCO)Cc1cc(F)cc(F)c1 [Compound 32, (4αR,5S)-N-(3,5-difluorobenzyl)-1-(4-fluorophenyl)-N-(2-hydroxyethyl)-4α-methyl-1,4,4α,5,6,7-hexahydrocyclopenta[f]indazole-5-carboxamide] |
| 44.1% | 66.3% | > 5% | 644 nM | 12 nM | 22.2% | 1510 nM | COc1cc(CN(CCO)C(=O)[C@H]2CCC3=Cc4c(cnn4-c4ccc(F)cc4)C[C@@]32C)cc(OC)c1 [Compound 34, (4αR,5S)-N-(3,5-dimethoxybenzyl)-1-(4-fluorophenyl)-N-(2-hydroxyethyl)-4α-methyl-1,4,4α,5,6,7-hexahydrocyclopenta[f]indazole-5-carboxamide] |
| 30.8% | 62.6% | > 5% | 945 nM | 14.7 nM | 31.8% | 2650 nM | C[C@]12Cc3cnn(-c4ccc(F)cc4)c3C=C1CC[C@@H]2C(=O)N(CCO)CCc1ccccc1 [Compound 35, (4αR,5S)-1-(4-fluorophenyl)-N-(2-hydroxyethyl)-4α-methyl-N-(2-phenylethyl)-1,4,4α,5,6,7-hexahydrocyclopenta[f]indazole-5-carboxamide] |
| 47.3% | 84.7% | > 5% | 739 nM | 14.6 nM | 37.5% | 660 nM | CCCCCN(CCO)C(=O)[C@H]1CCC2=Cc3c(cnn3-c3ccc(F)cc3)C[C@@]21C [Compound 38, (4αR,5S)-1-(4-fluorophenyl)-N-(2-hydroxyethyl)-4α-methyl-N-pentyl-1,4,4α,5,6,7-hexahydrocyclopenta[f]indazole-5-carboxamide] |
| 67.4% | 94.3% | > 5% | 125 nM | 4.4 nM | 27% | 535 nM | CCCCN(CC=O)C(=O)[C@H]1CCC2=Cc3c(cnn3-c3ccc(F)cc3)C[C@@]21C [Compound 39, (4αR,5S)-N-butyl-1-(4-fluorophenyl)-4α-methyl-N-(2-oxoethyl)-1,4,4α,5 ,6,7-hexahydrocyclopenta[f]indazole-5-carboxamide] |
| 20.4% | 86.8% | > 5% | 141 nM | 5.1 nM | 66.4% | 108 nM | CCCCN(CC(C)O)C(=O)[C@H]1CCC2=Cc3c(cnn3-c3ccc(F)cc3)C[C@@]21C (stereo partly drawn) [Compound 40, (4αR,5S)-N-butyl-1-(4-fluorophenyl)-N-(2-hydroxypropyl)-4α-methyl-1,4,4α,5,6,7-hexahydrocyclopenta[f]indazole-5-carboxamide] |
| 35.3% | 64.8% | > 5% | 889 nM | 21.2 nM | 29.5% | 419 nM | C[C@]12Cc3cnn(-c4ccc(F)cc4)c3C=C1CC[C@@H]2C(=O)N1CCC(C(F)(F)F)CC1 [Compound 42, (4αR,5S)-1-(4-fluorophenyl)-4α-methyl-5-{[4-(trifluoromethyl)piperidin-1-yl]carbonyl}-1,4,4α,5,6,7-hexahydrocyclopenta[f]indazole] |
